The values that follow come from PubChem BioAssay AID179 (DTP/NCI, 2004).

Values joined by “and” are separate entries in the source; they are usually repeats but may differ in a detail not shown here. Equal entries are not always repeated. Active and inactive are the calls of the source.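 How the source made its calls: active means compounds giving half or more protection of infected cells from virus-caused growth loss, again on retest; inactive means the rest.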 Where a SMILES comes first, the peptide text is derived from it. The star is where a group is joined. Cbz = O=C(OCc1ccccc1)*; NHNH2 = NN*

The experiment has as its system CEM cells HIV-1 protection, formazan growth assay. The experiment is described as follows: NCI AIDS Antiviral Assay. Conditions: for IC50: measured here: growth of uninfected CEM cells. The method, boiled down:
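Steps: treat uninfected and HIV-1-infected human CEM cells at five drug levels; quantify growth by soluble formazan; retest any compound reaching 50% protection; classify actives from the retest.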

As a reminder, the EC50 is the concentration needed to bring the measured effect to its halfway point. Usually IC50 stands for the concentration at which inhibition is half-maximal. A high value points to lower potency. For `O=S(c1ccccc1)c1ccccc1`, the EC50 was above 447 µM and the IC50 was found to be 389 µM. The corresponding values for `O=C(O)CCCc1ccc2c(c1)C(C(=O)O)CC2` (stereo unspecified) are above 200 µM and above 200 µM.

As for `CC(C)c1ccc2nc3ccc(C(=O)NCCN4CCN(c5ccccc5)CC4)cn3c(=O)c2c1`, the EC50 was above 200 µM and the IC50 was 14.8 µM. In the same order, the values of `COc1ccc(C=C2C(=O)NC(=O)NC2=O)cc1OCc1ccccc1` are above 200 µM and 24.5 µM.

In the case of `CC(=O)Nc1cc(S(=O)(=O)O)cc2cc(S(=O)(=O)O)c(N=Nc3ccc(C(=O)Nc4ccc(S(=O)(=O)O)cc4)cc3)c(O)c12`, the outcome was inactive. On the same count and under the same terms, then `C[n+]1c2ccccc2c(CNC(CS)C(=O)O)c2ccccc21` (stereo unspecified), with “inactive”. As to `CCC1C[N+]23CCc4c([nH]c5ccccc45)C2CC1CC3` (stereo unspecified), the EC50 was above 57.5 µM and the IC50 was above 57.5 µM. Regarding `Oc1ccc(CCl)c2cccnc12`, the EC50 is above 562 µM and the IC50 turned out to be 10.2 µM.

As for `COc1cc(CNc2ccc(C(C)C)cc2)cc(OC)c1OC`, the EC50 is above 74.1 µM and the IC50 was 31.6 µM.

For the compound `CC(=O)Nc1ccc(/C=C/C(=O)c2ccccc2)cc1`, the EC50 is above 38 µM and the IC50 is above 38 µM. `COC(=O)[C@H]1C=C[C@@H](C)n2c(=O)c3cc4ccccc4cc3c(=O)n21`: the EC50 was above 21.4 µM and the IC50 is above 21.4 µM.

For `Cc1nc2cccc(F)c2c(=O)n1C1CCCCNC1=O` (stereo unspecified), the EC50 is above 200 µM and the 50% inhibitory concentration (IC50) was above 200 µM. Take `COc1cc2c(cc1OC)C1OC(c3cc(OC)c(OC)cc3C1OC(C)=O)C2OC(C)=O` (stereo unspecified): the EC50 is above 50.1 µM and the concentration for half-maximal inhibition (IC50) is above 50.1 µM.

For `Clc1ccccc1CN1COc2c(ccc3cccnc23)C1`, the EC50 was above 30.9 µM and the IC50 is 1.58 µM.

`CN(C)c1ccc(C(c2c(O)c3ccccc3oc2=O)c2c(O)c3ccccc3oc2=O)cc1`: the EC50 is above 200 µM and the IC50 turned out to be 27.5 µM. The corresponding values for `CCN(CC)C1=C(N(CC)CC)C(N(CC)CC)=C(N(CC)CC)C1=O.[C-]#[O+].[C-]#[O+].[C-]#[O+].[Fe]` are above 2.88 µM and above 2.88 µM. In the same order, the values of `CC1=C(\C=C/C(C)=C/C=C/C(C)=C/C=C/C=C(C)\C=C\C=C(C)/C=C/C2=C(C)CCCC2(C)C)C(C)(C)CCC1` are above 200 µM and 97.7 µM. In the same order, the values of `Cc1cc(Nc2ccc(N=Nc3ccc(O)c4ncccc34)cc2)nc(C)n1` are above 200 µM and 6.46 µM. Take `CCOC(=O)NNC(=O)NCc1cccc(CNC(=O)NNC(=O)OCC)c1`: the EC50 was above 200 µM and the IC50 was above 200 µM. As to `Cc1cc(NS(=O)(=O)c2ccc(Nc3c4ccccc4nc4c(C(=O)Nc5ccccc5)cccc34)cc2)no1`, the EC50 was above 200 µM and the IC50 was found to be 10.5 µM. In the same order, the values of `N#Cc1ccnc(C(=O)N2CCCC2C(=O)O)c1` (stereo unspecified) are above 200 µM and above 200 µM.

Turning to `CNC(=O)N(CCCCC(NC(C)=O)C(=O)NCc1ccccc1)Cc1ccccc1` (stereo unspecified), the EC50 was above 589 µM and the IC50 is above 589 µM. For the compound `CC(O)(c1ccccc1)c1ccc2ccccc2n1` (stereo unspecified), the EC50 was above 200 µM and the IC50 stood at 38 µM. On to `COC1(CC2(OC)C=CC(=O)O2)C=CC(=O)O1` (stereo unspecified), for which the EC50 was above 105 µM and the IC50 amounted to 55 µM. In the same order, the values of `O=S(=O)(O)CC(O)CN(CCO)CCO` (stereo unspecified) are above 200 µM and above 200 µM. Take `CC(=O)O[C@]12CCCC1C1(O)C(O)CCCC12` (stereo partly specified): the EC50 is above 200 µM and the IC50 was above 200 µM. Turning to `N#Cc1c(-c2ccccc2)cc(-c2ccccc2)n(C2OC(CO)C(O)C(O)C2O)c1=O` (stereo unspecified), the EC50 is above 219 µM; the IC50 is 214 µM and > 60.3 µM. As to `COc1ccc(-c2nc(-c3ccc(OC)cc3)n(-c3ccccc3)n2)cc1`, the EC50 is above 200 µM and the IC50 came to 58.9 µM. Turning to `O=C(CC1(CC(=O)NCc2ccccc2)OCCO1)NCc1ccccc1`, the outcome was inactive. Regarding `CCOC(=O)/C(=C\c1ccc(CO)o1)P(=O)(OCC)OCC`, the EC50 was above 200 µM and the half-maximal inhibitory concentration (IC50) turned out to be 30.9 µM.

Consider `C[C@H](OCc1ccccc1)C(=O)N1CCS(=O)(=O)N2CCC[C@@H]2C1=O`, for which the EC50 is above 490 µM and the IC50 was above 490 µM.

Consider `O=c1ccn(C2OC(CO)CC2F)c(=O)[nH]1` (stereo unspecified), for which the EC50 was above 676 µM and the IC50 was above 676 µM. As for `COC(=O)CC(NC(=O)OCc1ccccc1)C(=O)NC(CC(=O)OC)C(=O)NC(CC(=O)OC)C(=O)NC(CC(=O)OC)C(=O)NC(CC(=O)OC)C(=O)NC(CC(=O)OC)C(=O)NN` (stereo unspecified) (Cbz-D(OMe)D(OMe)D(OMe)D(OMe)D(OMe)D(OMe)-NHNH2; configuration not given here), the EC50 is above 100 µM and the IC50 is above 100 µM. For the compound `CC1CCC2C(C(=O)O[C@H]3C4CCO[C@@H](OC5OC(CO)C(O)C(O)C5O)C4[C@@]4(CO)O[C@@H]34)=CO[C@@H](OC3OC(CO)C(O)C(O)C3O)C12` (stereo partly specified), the EC50 was above 200 µM and the IC50 was above 200 µM. For `Cc1cc(C)nc(NS(=O)(=O)c2ccc(NC(=O)c3cccc4c(=O)c5ccccc5[nH]c34)cc2)n1`, the result was inactive. Regarding `N#C[C@H](C(=O)c1ccccc1F)c1nc2ccccc2s1`, the EC50 is above 200 µM and the concentration for half-maximal inhibition (IC50) was 93.3 µM.

Consider `CCOC(=O)C12CCCC1(O)N(NC(=O)c1cccc(Cl)c1)C(C)=C2C(=O)OC` (stereo unspecified), for which the EC50 is above 427 µM and the IC50 stood at 123 µM.

Regarding `COc1cc(OC)c2nc(C)c(CCCl)c(Cl)c2c1`, the EC50 is above 200 µM and the IC50 was above 200 µM.

As for `CC(=O)/C(N=Nc1ccc(-n2c(C)nc3ccccc3c2=O)cc1)=C(/C)O`, the EC50 was above 200 µM and the IC50 is above 200 µM. In the case of `Cc1nnc2cc(C(=O)O)c3ccccc3n2c1=O`, the EC50 was above 200 µM and the IC50 was above 200 µM. In the case of `c1ccc2c(c1)nnn2CN1CCOCC1`, the outcome was inactive. Still for that read-out and setting: then `[O-]/[N+]1=[N+](\[O-])c2ccccc2COCc2ccccc21`, with “inactive”. As to `N/C(=N/n1c(=S)[nH]c2ccccc2c1=O)Nn1c(=S)[nH]c2ccccc2c1=O`, the EC50 is above 200 µM and the half-inhibitory concentration (IC50) is 19.1 µM. In the same order, the values of `O=C(O)[C@@H]1CSC(c2cccc(F)c2)N1` (stereo partly specified) are above 200 µM and above 200 µM. In the same order, the values of `c1ccc([P+](c2ccccc2)(c2ccccc2)c2ccc([P+](c3ccccc3)(c3ccccc3)c3ccccc3)c3ccccc23)cc1` are above 200 µM and 110 µM.

For `CC1=NNC(=O)C1C1CC(c2c[nH]c3ccccc23)=NNC1=NCc1ccccc1` (stereo unspecified), the EC50 was 4.68 µM and the IC50 came to 50.1 µM. In the same order, the values of `CCC(=O)[CH-]C(=O)CC.CCC(=O)[CH-]C(=O)CC.[Cu+2]` are above 200 µM and 24.5 µM.

As for `O=C(O)[C@H]1CSCN1C(=O)c1ccccc1SSc1ccccc1C(=O)N1CSC[C@H]1C(=O)O`, the EC50 was above 200 µM and the IC50 was above 200 µM. With `CS(=O)(=O)c1nc(NCCc2ccccc2)c2cnn(C3CCCCO3)c2n1` (stereo unspecified), the outcome was inactive. `CCC(NC1=NCCO1)c1cccs1` (stereo unspecified): the EC50 was above 200 µM and the IC50 came out at 79.4 µM. Turning to `COC1=NC2=CC(=O)c3c(c(OC(C)=O)c(C)c4c3C(=O)C(C)(O/C=C/C(OC)C(C)C(OC(C)=O)C(C)C(O)C(C)C(OC(C)=O)C(C)/C=C/C=C\1C)O4)C2=O` (stereo unspecified), the EC50 is above 200 µM and the IC50 is 16.6 µM. In the same order, the values of `BrC(/C=N/Nc1nnc(-c2ccccc2)c(-c2ccccc2)n1)C(Br)c1ccccc1` (stereo unspecified) are above 13.5 µM and above 13.5 µM. The corresponding values for `CN1CCN(C(=S)N(C(=O)c2cccs2)c2ccccc2)CC1` are above 105 µM and above 105 µM. As for `Cc1ccc(-c2n[nH]c(Cc3nc(-c4ccc(C)cc4)n[nH]3)n2)cc1`, the EC50 is above 200 µM and the IC50 is above 200 µM.

As for `CCOC(=O)/C=C(\C)NCCSSCCN/C(C)=C/C(=O)OCC`, the EC50 is above 200 µM and the IC50 came to 50.1 µM. As to `CC1=C(C(=O)Nc2cccc(Cl)c2)C(c2ccccc2F)C(C(=O)Nc2cccc(Cl)c2)=C(C)N1`, the EC50 was above 14.1 µM and the IC50 was above 14.1 µM.

As for `COC1=C(C)C2CC(=O)OC3CC4C(C)CC(OC(C)=O)C(=O)[C@]4(C)C(C1=O)[C@@]32C` (stereo partly specified), the outcome was inactive. Consider `O=C(CCSCCC(=O)NNc1ccccc1)NNc1ccccc1`, for which the EC50 was above 20 µM and the IC50 was above 20 µM. As for `O=[N+]([O-])c1ccc(O)c(/C=N/NC(=S)N2CCCCC2)c1`, the EC50 was above 200 µM and the IC50 was determined as 2.95 µM. The corresponding values for `CCOc1cnn(-c2ccccc2)c(=O)c1SCc1ccccc1` are above 77.6 µM and 56.2 µM. The corresponding values for `COc1ccc(C2S/C(=C\c3ccc(OC)cc3OC)C(=O)N2NC(=O)Cc2ccccc2)cc1` (stereo unspecified) are above 52.5 µM and above 52.5 µM. In the case of `Cc1ccc(SSc2ccc(C)cc2C(=O)O)c(C(=O)O)c1`, the EC50 is above 200 µM and the IC50 was above 200 µM.

With `CCN(CC)/N=C\c1c2ccccc2cc2ccccc12`, the EC50 was above 200 µM and the IC50 came to 85.1 µM. Consider `CCCc1nc(NC#N)nc(C(=O)NC23CC4CC(CC(C4)C2)C3)c1C`, for which the EC50 is above 355 µM and the IC50 was above 355 µM. Take `CCC(C)CCOC(=O)c1ccc(N=Cc2ccc(C=Nc3ccc(C(=O)OCCC(C)CC)cc3)cc2)cc1` (stereo unspecified): the EC50 is above 6.61 µM and the IC50 is above 6.61 µM.

With `CCN=C(N)Nc1ccccc1`, the EC50 is above 200 µM and the IC50 came to 132 µM. With `COc1cc(O)c(C(=O)C2Cc3ccccc32)c(OC)c1` (stereo unspecified), the result was inactive. On to `COc1cc(/C=C2\C(=O)N(C(=O)c3ccc(NC(C)=O)cc3)N=C2C)ccc1O`, for which the EC50 is above 66.1 µM and the IC50 was above 66.1 µM.

In the case of `COc1ccc(OC)c(/C=C2\C=Cc3ccccc32)c1`, the EC50 is above 38 µM and the IC50 was determined as 6.46 µM.

With `CCOC(=O)CCC1(C(=O)OCC)CCCCC1=O` (stereo unspecified), the EC50 was above 251 µM and the 50% inhibitory concentration (IC50) is above 251 µM.
